Laboratory results: patent EP4740947A1, “PHARMACEUTICAL COMBINATION OF EGFR KINASE INHIBITOR AND C-MET KINASE INHIBITOR FOR TREATING TUMOR DISEASES” (Jiangsu AoSaiKang Pharmaceutical Co., Ltd., priority 2023, dated 2025)

Experiments:
[1] = Body weight monitoring and daily observation in the NCI-H1975-HGF xenograft model; type: in vivo
Procedure: 4) After inoculation, the tumor volume and weight were measured twice a week. When the average tumor volume reached about 100 mm^3, the animals were randomly divided into 4 groups according to the tumor volume and weight, each group having 3 animals. The animals were immediately administered after grouping. The day of administration was regarded as day 0. Table 3. Grouping and administration information
After inoculation, the disease attack and death of animals were observed every working day. Daily observation includes tumor growth and the effects of drugs on test animals, such as changes in activity, changes in food and water intake, weight loss, appearance changes in hair and eyes, death and other clinical symptoms.
After inoculation and before grouping, the weight of test animals was measured once a week. After grouping, the weight of the test animals was measured twice a week.

[2] = Body weight change and tolerance of tumor-bearing mice in the LD1-0025-200662 PDX model; type: in vivo; conditions: for Rate of weight change (%) Day 21: Day 21 vs Day 0
Procedure: Immunodeficient mice were subcutaneously inoculated with LD1-0025-200662 tumor tissue, and observed continuously till tumor formation. When the tumor volume reached about 1000 mm^3, the tumor tissue was peeled off and cut into tumor tissue with a size of about 3 mm × 3 mm × 3 mm (about 50-90 mg), and inoculated subcutaneously in NU/NU mice. The inoculated mice were observed and the growth of tumor was monitored. When the average tumor volume of tumor-bearing mice reached 193.40 mm^3, the mice were randomly divided into groups, administered and observed. The tumor volume and weight of all tumor-bearing mice were measured before grouping, and the tumor-bearing mice were randomly grouped according to the measured tumor volume. According to the principle of random block design, the mice were first divided into blocks according to the tumor volume, and then the mice in each block were randomly assigned to each treatment group. Table 9. Administration and treatment
During the whole experiment, the use and observation of test animals were carried out in accordance with the relevant regulations of Guide for the Care and Use of Laboratory Animals of AAALAC. After the test animals were inoculated with the tumor tissue, they were observed every day and the disease attack and death were recorded. During the routine experiment, all the test animals were monitored and recorded for behavior, food intake, water intake, weight change, hair luster and other abnormal conditions.
5.6 The weight of tumor-bearing mice was measured twice a week, and the change rate of weight gain of mice after administration was calculated: RCBW(%) = (BWi - BW0) / BW0 × 100, where BWi was the average weight at a certain measurement after administration, and BW0 was the average weight at the first administration.

[3] = ASK-EGFR 20 mg/kg p.o. QD×21 (G2)
[4] = ASK-MET 1 mg/kg p.o. QD×(D0-D7) (G3)
[5] = ASK-MET 3 mg/kg p.o. QD×(D0-D7) (G4)

SMILES: C=CC(=O)Nc1cc(Nc2ncc(Cl)c(Nc3ccc4ccccc4c3)n2)c(OC)cc1N(C)CCN(C)C [ASK-EGFR, N-((5-((5-chloro-4-((naphthalen-2-yl)amino))pyrimidin-2-yl)amino)-2-((N-methyl-N-dimethylaminoethyl)amino)-4-methoxyphenyl) acrylamide]
- Weight ([1]; Day 0, ASK-EGFR 20 mg/kg p.o. QD×15 (G4)): 22.0 ± 0.1 g
- Weight ([1]; Day 2, ASK-EGFR 20 mg/kg p.o. QD×15 (G4)): 21.9 ± 0.2 g
- Weight ([1]; Day 5, ASK-EGFR 20 mg/kg p.o. QD×15 (G4)): 22.1 ± 0.1 g
- Weight ([1]; Day 8, ASK-EGFR 20 mg/kg p.o. QD×15 (G4)): 21.1 ± 0.3 g
- Weight ([1]; Day 12, ASK-EGFR 20 mg/kg p.o. QD×15 (G4)): 21.5 ± 0.6 g
- Weight ([1]; Day 15, ASK-EGFR 20 mg/kg p.o. QD×15 (G4)): 21.0 ± 0.5 g
- Average weight (g) (Mean ± SEM) Day 0 [2, 3]: 23.24 ± 0.47 g
- Average weight (g) (Mean ± SEM) Day 21 [2, 3]: 24.75 ± 0.64 g
- Rate of weight change (%) Day 21 [2, 3]: 6.45±1.28%

SMILES: CC(C)(O)CN1CCC(COc2cnc(-c3cccc(Cn4c(=O)ccn5c6cc(C#N)ccc6nc45)c3)nc2)CC1 [ASK-MET]
- Weight ([1]; Day 0, ASK-MET 2 mg/kg p.o. QD×15 (G2)): 20.3 ± 1.0 g
- Weight ([1]; Day 2, ASK-MET 2 mg/kg p.o. QD×15 (G2)): 20.3 ± 1.3 g
- Weight ([1]; Day 5, ASK-MET 2 mg/kg p.o. QD×15 (G2)): 20.5 ± 1.0 g
- Weight ([1]; Day 8, ASK-MET 2 mg/kg p.o. QD×15 (G2)): 20.8 ± 0.3 g
- Weight ([1]; Day 12, ASK-MET 2 mg/kg p.o. QD×15 (G2)): 20.8 ± 0.4 g
- Weight ([1]; Day 15, ASK-MET 2 mg/kg p.o. QD×15 (G2)): 20.5 ± 0.4 g
- Average weight (g) (Mean ± SEM) Day 0 [2, 4]: 24.08 ± 0.53 g
- Average weight (g) (Mean ± SEM) Day 0 [2, 5]: 24.02 ± 0.37 g
- Average weight (g) (Mean ± SEM) Day 21 [2, 4]: 25.24 ± 0.50 g
- Average weight (g) (Mean ± SEM) Day 21 [2, 5]: 25.03 ± 0.45 g
- Rate of weight change (%) Day 21 [2, 4]: 4.88±0.71%
- Rate of weight change (%) Day 21 [2, 5]: 4.19±1.08%
